Laboratory results from ChEMBL document CHEMBL1201862, “PubChem BioAssay data set” (2004).
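Method: 48-hour compound exposure of cells in 96-well plates, five concentrations, linear interpolation of endpoints. Abbreviation: GI50, concentration required for 50% inhibition of growth.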 Calls of active or inactive are those of the source. Cut-off read from the data, not from the text of the source: active = GI50 up to about 1.1 µM and inactive = higher.

Experiments:
Assay in all cases: inhibition of tumour cell growth, NCI panel, 48 h
[1] = test system: Hs-578T
[2] = test system: OVCAR-5
[3] = test system: SF-539
[4] = test system: U-251
[5] = test system: T47D
[6] = test system: NCI-H226
[7] = test system: HCT-15
[8] = test system: M14
[9] = test system: CCRF-CEM
[10] = test system: NCI-H23
[11] = test system: IGROV-1
[12] = test system: MDA-N
[13] = test system: KM12
[14] = test system: SW-620
[15] = test system: RPMI-8226
[16] = test system: SR
[17] = test system: 786-0
[18] = test system: HOP-92
[19] = test system: COLO 205
[20] = test system: SK-MEL-2

## O=C1CC(C(O)CO)CC(=O)N1 (stereo not drawn)
[1]
  GI50: > 100 µM (inactive)
[2]
  GI50: > 100 µM (inactive)
[3]
  GI50: > 100 µM (inactive)
[4]
  GI50: > 100 µM (inactive)
[5]
  GI50: > 100 µM (inactive)
[6]
  GI50: > 100 µM (inactive)
[7]
  GI50: > 100 µM
[8]
  GI50: > 100 µM (inactive)
[9]
  GI50: > 100 µM (inactive)
[10]
  GI50: > 100 µM (inactive)
[11]
  GI50: > 100 µM (inactive)
[12]
  GI50: > 100 µM (inactive)
[13]
  GI50: > 100 µM (inactive)
[14]
  GI50: > 100 µM (inactive)
[15]
  GI50: > 100 µM (inactive)
[16]
  GI50: > 100 µM (inactive)
[17]
  GI50: > 100 µM (inactive)
[18]
  GI50: > 100 µM (inactive)

## O=C1c2ccccc2C(=O)N1CC1S(=O)(=O)OCCOS1(=O)=O
[1]
  GI50: > 100 µM (inactive)
[2]
  GI50: > 100 µM (inactive)
[3]
  GI50: 98.4 µM (inactive)
[4]
  GI50: > 100 µM (inactive)
[5]
  GI50: > 100 µM (inactive)
[6]
  GI50: > 100 µM (inactive)
[7]
  GI50: > 100 µM
[8]
  GI50: > 100 µM (inactive)
[9]
  GI50: > 100 µM (inactive)
[10]
  GI50: > 100 µM (inactive)
[11]
  GI50: > 100 µM (inactive)
[12]
  GI50: > 100 µM (inactive)
[19]
  GI50: > 100 µM (inactive)
[14]
  GI50: > 100 µM (inactive)
[15]
  GI50: > 100 µM (inactive)
[16]
  GI50: 44.1 µM (inactive)
[17]
  GI50: > 100 µM (inactive)
[18]
  GI50: > 100 µM (inactive)

## CC(C)(C)OC(=O)NCCC(N)=S
[1]
  GI50: > 100 µM (inactive)
[2]
  GI50: > 100 µM (inactive)
[3]
  GI50: > 100 µM (inactive)
[4]
  GI50: > 100 µM (inactive)
[5]
  GI50: > 100 µM (inactive)
[6]
  GI50: > 100 µM (inactive)
[7]
  GI50: > 100 µM
[8]
  GI50: > 100 µM (inactive)
[9]
  GI50: 57.5 µM (inactive)
[10]
  GI50: > 100 µM (inactive)
[11]
  GI50: > 100 µM (inactive)
[12]
  GI50: > 100 µM (inactive)
[19]
  GI50: > 100 µM (inactive)
[13]
  GI50: > 100 µM (inactive)
[14]
  GI50: > 100 µM (inactive)
[15]
  GI50: > 100 µM (inactive)
[16]
  GI50: > 100 µM (inactive)
[17]
  GI50: > 100 µM (inactive)
[18]
  GI50: > 100 µM (inactive)

## Cc1ccc(/N=N/c2c(O)c(C(=O)O)cc3ccccc23)c(S(=O)(=O)O)c1
[1]
  GI50: > 100 µM (inactive)
[2]
  GI50: > 100 µM (inactive)
[4]
  GI50: > 100 µM (inactive)
[5]
  GI50: > 100 µM (inactive)
[20]
  GI50: > 100 µM (inactive)
[6]
  GI50: > 100 µM (inactive)
[7]
  GI50: > 100 µM
[8]
  GI50: > 100 µM (inactive)
[9]
  GI50: > 100 µM (inactive)
[10]
  GI50: > 100 µM (inactive)
[11]
  GI50: > 100 µM (inactive)
[12]
  GI50: > 100 µM (inactive)
[19]
  GI50: > 100 µM (inactive)
[13]
  GI50: > 100 µM (inactive)
[14]
  GI50: > 100 µM (inactive)
[15]
  GI50: > 100 µM (inactive)
[16]
  GI50: > 100 µM (inactive)
[17]
  GI50: > 100 µM (inactive)
[18]
  GI50: 97.1 µM (inactive)

## Cc1ccc(SCN2CCCCC2)cc1.O=C(Cl)c1ccc([N+](=O)[O-])cc1
[1]
  GI50: 10.4 µM (inactive)
[2]
  GI50: 10.7 µM (inactive)
[4]
  GI50: 11.2 µM (inactive)
[5]
  GI50: 12.2 µM (inactive)
[20]
  GI50: 14.7 µM (inactive)
[6]
  GI50: 16.6 µM (inactive)
[7]
  GI50: 9.77 µM
[8]
  GI50: 17.8 µM (inactive)
[9]
  GI50: 2.03 µM (inactive)
[10]
  GI50: 8.22 µM (inactive)
[11]
  GI50: 3.3 µM (inactive)
[12]
  GI50: 6.25 µM (inactive)
[19]
  GI50: 4.86 µM (inactive)
[13]
  GI50: 10.8 µM (inactive)
[14]
  GI50: 18.5 µM (inactive)
[15]
  GI50: 5.78 µM (inactive)
[16]
  GI50: 4.24 µM (inactive)
[17]
  GI50: 15.1 µM (inactive)
[18]
  GI50: 9.18 µM (inactive)
